Key:
[1] = system: PC3 (prostate adenocarcinoma cell line); assay: MTT cytotoxicity assay, PC3 cells; format: cell-based; settings: Homo sapiens, PC-3, 48 h incubation, mean ± SD, triplicate
Excerpt: (§1) For the experiments, the tumor cell cultures of M-HeLa clone 11 (epithelioid carcinoma of the cervix, subline HeLa., clone M-HeLa), HuTu 80, human duodenal adenocarcinoma, MCF7—human breast adenocarcinoma (pleural fluid) collected from the Institute of Cytology, Russian Academy of Sciences (St. Petersburg, Russia); PC3—prostate adenocarcinoma cell line collected from ATCC (American Type Cell Collection, Manassas, VA, USA; CRL 1435; human liver cells (Chang liver) and the Research Institute of Virology of the Russian Academy of Medical Sciences (Moscow, Russia) were used for cytotoxicity analysis.
(§2) The cytotoxic effect on cells was determined by the colorimetric method of cell proliferation—MTT test. The cells were seeded on a 96-well Nunc plate at a concentration of 5 × 10^3 cells per well in a volume of 100 µL of medium and cultured in a CO2 incubator at 37 °C until a monolayer was formed. Then, the nutrient medium was removed and 100 μL of the test drug solution in these dilutions was added to the wells prepared directly in the nutrient medium with the addition of 5% DMSO to improve solubility. After 48 h of cell incubation with test compounds, the nutrient medium was removed from the plates and 100 μL of serum-free nutrient medium with MTT at a concentration of 0.5 mg/mL was added and incubated for 4 h at 37 °C. C. Formazan crystals were added to 100 µL of DMSO. The optical density was recorded at 540 nm on an Invitrologic microplate reader (Novosibirsk, Russia). The experiments for all compounds were repeated three times.

[2] = system: Chang liver (HeLa derivative), human liver cells; assay: MTT cytotoxicity assay, normal Chang liver cells; format: cell-based; settings: for IC50: Homo sapiens, HeLa, MTT, 48 h incubation, mean ± SD, triplicate, read-out: IC50 (µM) Chang Liver (HeLa), normal cell line
Excerpt: as §1, §2

[3] = system: HuTu 80 (human duodenal adenocarcinoma); assay: MTT cytotoxicity assay, HuTu 80 cells; format: cell-based; settings: for IC50: Homo sapiens, HuTu80, MTT, 48 h incubation, mean ± SD, triplicate
Excerpt: as §1, §2

[4] = system: MCF−7 (human breast adenocarcinoma); assay: MTT cytotoxicity assay, MCF-7 cells; format: cell-based; settings: MCF7, 48 h incubation, mean ± SD, triplicate
Experimental: The cytotoxic effect on cells was determined by the colorimetric method of cell proliferation—MTT test. […] C. Formazan crystals were added to 100 µL of DMSO. The optical density was recorded at 540 nm on an Invitrologic microplate reader (Novosibirsk, Russia). The experiments for all compounds were repeated three times.

[5] = system: M-HeLa clone 11 (epithelioid carcinoma of the cervix, subline HeLa, clone M-HeLa); assay: MTT cytotoxicity assay, M-HeLa cells; format: cell-based; settings: for IC50: Homo sapiens, M-HeLa, MTT, 48 h incubation, mean ± SD, triplicate; for selectivity index (SI): ratio between IC50 for normal cells and IC50 for tumor cells, with respect to M-HeLa cell line
Excerpt: as §1, §2

## COc1cccc(/C=c2\sc3n(c2=O)C(c2ccc(C)cc2)C(C(C)=O)=C(C)N=3)c1O (stereo not shown) [Compound 1, 6-Acetyl-(Z)−2-(2-hydroxy−3-methoxybenzylidene)−7-methyl−5-(p-tolyl)−2H-thiazolo[3,2-a]pyrimidine−3(5H)-one]
[1]
  IC50: 57.4 ± 4.5 µM
[2]
  IC50: > 100 µM
[3]
  IC50: 88 ± 6.9 µM
other
  melting point: 209 to 211 °C
[4]
  IC50: > 100 µM
[5]
  IC50: 88 ± 7 µM

## CCOC(=O)C1=C(C)N=c2s/c(=C\c3cccc(OC)c3O)c(=O)n2C1c1cccc([N+](=O)[O-])c1 (stereo not shown) [Compound 2, Ethyl (Z)−2-(2-hydroxy−3-methoxybenzylidene)−7-methyl−5-(3-nitrophenyl)−3-oxo−2,3-dihydro−5H-thiazolo[3,2-a]pyrimidine−6-carboxylate]
[1]
  IC50: > 100 µM
[2]
  activity on normal cells, Chang liver (in words): low biological activity
  IC50: > 100 µM
[3]
  IC50: 90 ± 8 µM
other
  melting point: 206 to 208 °C
[4]
  IC50: 72 ± 5.8 µM
[5]
  cytotoxicity against M-HeLa (in words): high cytotoxicity
  IC50: 16.2 ± 1.3 µM
  selectivity index (SI): higher than 6
[5]; relative to reference drug Sorafenib
  efficiency of cytotoxicity towards M-HeLa compared to Sorafenib: two times higher

## CCOC(=O)C1=C(C)N=c2s/c(=C\c3cccc(OC)c3O)c(=O)n2C1c1ccccc1OC (stereo not shown) [Compound 3, Ethyl (Z)-2-(2-hydroxy-3-methoxybenzylidene)-7-methyl-5-(2-methoxyphenyl)-3-oxo-2,3-dihydro-5H-thiazolo[3,2-a]pyrimidine-6-carboxylate]
[1]
  IC50: 54.1 ± 4.3 µM
[2]
  IC50: 96 ± 7.5 µM
[3]
  IC50: > 100 µM
other
  melting point: 193 to 195 °C
[4]
  IC50: > 100 µM
[5]
  IC50: 98.1 ± 7.7 µM

## CCOC(=O)C1=C(C)N=c2s/c(=C\c3cccc(OC)c3O)c(=O)n2C1c1ccccc1 (stereo not shown) [Compound 4, Ethyl (Z)−2-(2-hydroxy−3-methoxybenzylidene)−7-methyl−5-phenyl−3-oxo−2,3-dihydro−5H-thiazolo[3,2-a]pyrimidine−6-carboxylate]
[1]
  IC50: > 100 µM
[2]
  IC50: > 100 µM
[3]
  IC50: > 100 µM
other
  melting point: 231 to 233 °C
[4]
  IC50: > 100 µM
[5]
  IC50: > 100 µM

## CCOC(=O)C1=C(C)N=c2s/c(=C\c3cccc(OC)c3O)c(=O)n2C1c1cccc(Br)c1 (stereo not shown) [Compound 5, Ethyl 5-(3-bromophenyl)-(Z)−2-(2-hydroxy−3-methoxybenzylidene)−7-methyl−3-oxo−2,3-dihydro−5H-thiazolo[3,2-a]pyrimidine−6-carboxylate]
[1]
  IC50: > 100 µM
[2]
  activity on normal cells, Chang liver (in words): Moderate cytotoxicity
  IC50: 51.4 ± 4.1 µM
[3]
  cytotoxicity towards HuTu 80 (in words): Moderate cytotoxicity
  IC50: 43.3 ± 3.4 µM
other
  melting point: 190 to 192 °C
[4]
  IC50: > 100 µM
[5]
  IC50: > 100 µM

## CCOC(=O)C1=C(C)N=c2s/c(=C\c3cccc(OC)c3O)c(=O)n2C1c1ccc(Br)cc1 (stereo not shown) [Compound 6, Ethyl 5-(4-bromophenyl)-(Z)−2-(2-hydroxy−3-methoxybenzylidene)−7-methyl−3-oxo−2,3-dihydro−5H-thiazolo[3,2-a]pyrimidine−6-carboxylate]
[1]
  IC50: 100 ± 8.6 µM
[2]
  IC50: 64.2 ± 5.1 µM
[3]
  IC50: 90.3 ± 8.1 µM
other
  melting point: 234 to 236 °C
[4]
  IC50: > 100 µM
[5]
  IC50: 85 ± 7.8 µM

## CNC(=O)c1cc(Oc2ccc(NC(=O)Nc3ccc(Cl)c(C(F)(F)F)c3)cc2)ccn1 [Sorafenib, reference compound]
[1]
  IC50: 12.7 ± 1.1 µM
[3]
  IC50: 13 ± 1.2 µM
[5]
  IC50: 25 ± 1.8 µM
  selectivity index (SI): lower than 1
